Experimental data reported in PubChem BioAssay AID588490 (The Scripps Research Institute Molecular Screening Center, 2011).

Columns and labels:
Test in all cases: PubChem AID 588490; call rule not given here
[1] = target: Protein-arginine deiminase type-3 (Homo sapiens) (UniProt Q9ULW8); details: recombinant PAD1-4, BAEE citrulline colorimetric absorbance; PAD3
[2] = target: Protein-arginine deiminase type-2 (Homo sapiens) (UniProt Q9Y2J8); details: recombinant PAD1-4, BAEE citrulline colorimetric absorbance; PAD2
Protein-arginine deiminase type-2 (Homo sapiens), sequence (Q9Y2J8 whole entry, looked up): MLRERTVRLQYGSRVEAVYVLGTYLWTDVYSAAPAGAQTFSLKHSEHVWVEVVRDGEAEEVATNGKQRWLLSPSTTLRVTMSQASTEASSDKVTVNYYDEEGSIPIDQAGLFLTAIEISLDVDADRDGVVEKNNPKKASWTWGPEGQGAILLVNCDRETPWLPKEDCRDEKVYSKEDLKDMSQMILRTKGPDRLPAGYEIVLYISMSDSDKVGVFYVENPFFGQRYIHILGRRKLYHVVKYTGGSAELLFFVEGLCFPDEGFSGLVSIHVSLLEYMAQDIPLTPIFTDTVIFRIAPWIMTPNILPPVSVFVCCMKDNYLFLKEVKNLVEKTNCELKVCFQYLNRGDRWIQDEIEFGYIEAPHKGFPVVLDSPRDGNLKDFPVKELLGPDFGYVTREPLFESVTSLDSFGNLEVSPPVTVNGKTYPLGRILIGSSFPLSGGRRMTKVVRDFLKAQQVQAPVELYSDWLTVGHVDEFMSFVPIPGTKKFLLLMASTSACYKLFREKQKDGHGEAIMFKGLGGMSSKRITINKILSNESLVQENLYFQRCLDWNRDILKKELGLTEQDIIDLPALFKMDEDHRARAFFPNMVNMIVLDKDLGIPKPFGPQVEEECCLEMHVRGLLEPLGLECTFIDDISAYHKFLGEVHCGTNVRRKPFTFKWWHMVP

[3] = target: Protein-arginine deiminase type-1 (Homo sapiens) (UniProt Q9ULC6); details: recombinant PAD1-4, BAEE citrulline colorimetric absorbance; PAD1
Protein-arginine deiminase type-1 (Homo sapiens), sequence (Q9ULC6 whole entry, looked up): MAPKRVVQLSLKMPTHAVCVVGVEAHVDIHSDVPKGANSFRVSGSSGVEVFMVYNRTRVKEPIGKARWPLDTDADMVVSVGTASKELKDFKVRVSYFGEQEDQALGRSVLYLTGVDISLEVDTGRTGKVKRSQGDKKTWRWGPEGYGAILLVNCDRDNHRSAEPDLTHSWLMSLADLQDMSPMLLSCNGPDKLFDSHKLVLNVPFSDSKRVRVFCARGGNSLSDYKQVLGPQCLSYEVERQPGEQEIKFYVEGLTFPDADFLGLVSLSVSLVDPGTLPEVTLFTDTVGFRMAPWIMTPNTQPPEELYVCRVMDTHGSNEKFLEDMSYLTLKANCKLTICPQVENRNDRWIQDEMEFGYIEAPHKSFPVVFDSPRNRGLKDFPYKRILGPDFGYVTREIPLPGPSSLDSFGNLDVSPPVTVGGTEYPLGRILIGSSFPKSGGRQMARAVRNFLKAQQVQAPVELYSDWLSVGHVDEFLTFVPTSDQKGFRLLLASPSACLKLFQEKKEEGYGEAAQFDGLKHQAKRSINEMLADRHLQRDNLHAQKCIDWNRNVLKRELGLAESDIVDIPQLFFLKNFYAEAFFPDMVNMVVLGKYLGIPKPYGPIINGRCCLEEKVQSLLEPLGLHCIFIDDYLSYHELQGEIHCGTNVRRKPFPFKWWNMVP

Measured: IC50

Protein-arginine deiminase type-3 (Homo sapiens), sequence (Q9ULW8 whole entry, looked up): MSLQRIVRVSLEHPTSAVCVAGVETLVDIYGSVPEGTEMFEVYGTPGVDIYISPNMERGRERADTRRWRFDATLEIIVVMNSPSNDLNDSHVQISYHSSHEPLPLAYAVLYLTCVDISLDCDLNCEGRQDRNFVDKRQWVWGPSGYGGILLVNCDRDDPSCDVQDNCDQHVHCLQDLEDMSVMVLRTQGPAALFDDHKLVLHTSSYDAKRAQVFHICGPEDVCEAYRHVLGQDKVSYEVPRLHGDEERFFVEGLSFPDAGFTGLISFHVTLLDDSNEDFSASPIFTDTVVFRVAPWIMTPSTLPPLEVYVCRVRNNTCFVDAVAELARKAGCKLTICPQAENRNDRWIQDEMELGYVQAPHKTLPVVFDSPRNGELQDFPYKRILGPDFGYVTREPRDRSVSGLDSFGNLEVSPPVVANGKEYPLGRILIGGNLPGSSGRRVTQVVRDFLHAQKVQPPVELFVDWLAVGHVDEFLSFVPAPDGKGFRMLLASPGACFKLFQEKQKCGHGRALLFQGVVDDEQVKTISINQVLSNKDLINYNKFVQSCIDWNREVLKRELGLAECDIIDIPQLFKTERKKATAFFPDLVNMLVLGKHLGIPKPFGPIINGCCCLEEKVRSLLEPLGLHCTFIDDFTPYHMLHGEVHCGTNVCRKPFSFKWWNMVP

NC1=CC(=O)c2ccc(-c3cccc(C(=O)O)n3)nc2C1=O
active: [1] 710 nM | [2] 200 nM | [3] 70 nM
